From paper PMC12745361, “Dysadherin/YAP axis fuels stem plasticity and immune escape in liver cancer” (Signal Transduction and Targeted Therapy, 2025)

What was measured:
Type in all cases: cell-based, human
PLC/PRF/5 cells [1] = assay: Immunoblot of FAK/YAP signalling and pluripotency factors in dysadherin-OE PLC/PRF/5 cells
Protocol: (§1) Cells were lysed in RIPA buffer for 20 minutes on ice, and protein concentrations were measured using a bicinchoninic acid (BCA) assay kit (Thermo Fisher Scientific). The proteins were denatured with SDS (Sigma‒Aldrich) and by boiling at 95 °C for 5 minutes. Equal amounts (10 µg) were resolved by 10% SDS-PAGE and transferred to PVDF membranes (Millipore, Burlington, MA, USA). The membranes were blocked with 10% bovine serum albumin (Sigma‒Aldrich) and incubated overnight at 4 °C with the indicated primary antibodies. […] After washing, membranes were incubated with HRP-conjugated secondary antibodies, and signals were developed using SuperSignal™ West Dura Substrate (Thermo Fisher Scientific) and visualized using a Digital 8 Imaging System (ProteinSimple, San Jose, CA, USA). The antibodies used for immunoblot analyses are listed in Supplementary Table S3.

PLC/PRF/5 cells [2] = assay: Sphere formation and Aldefluor assays, dysadherin-OE PLC/PRF/5; conditions: dysadherin-OE PLC/PRF/5 cells; sphere formation, Aldefluor, CSC gene expression
Protocol: The ALDH enzymatic activity of the cells was determined by ALDEFLUOR kit (Stem Cell Technologies, Vancouver, BC, Canada). Flow cytometric detection of cells expressing ALDH was performed. Diethylaminobenzaldehyde (DEAB), a specific ALDH inhibitor, was utilized to stain negative control cells.
To examine their self-renewal ability, cells were seeded at various densities in poly-HEMA-coated plates (Sigma‒Aldrich, St. Louis, MO, USA) under non-adherent, sphere–forming condition. After incubation, spheres were counted and measured (n = 3/group). Sphere viability was assessed using the CellTiter-Blue Cell Viability Assay (Sigma-Aldrich) according to the manufacturer’s instructions. Fluorescence was measured at 560 nm excitation and 590 nm emission using the Varioskan LUX multimode reader (Thermo Fisher Scientific, Waltham, MA, USA).

PLC/PRF/5 cells [3] = assay: Clonogenic survival assay, dysadherin-OE PLC/PRF/5; conditions: dysadherin-OE PLC/PRF/5 cells; 200 cells/well, 14 days, n = 3/group
Protocol: A clonogenic assay was performed as previously described.[43],[44] Briefly, cells were seeded in 12-well plates (200 cells/well) and cultured for 14 days. Colonies >50 μm in diameter were counted after crystal violet staining (n = 3/group).

OCT4 promoter = OCT4 promoter luciferase reporter assay; conditions: dysadherin-OE PLC/PRF/5 cells, verteporfin 1.5 μmol/L, 24 h, normalized to β-galactosidase
Protocol: Luciferase activity driven by the OCT4 promoter was measured using a reporter vector (GeneCopoeia, Rockville, MD, USA). For transfection, plasmid DNA, β-galactosidase control, and Lipofectamine (Sigma-Aldrich) were mixed at 1 μg:1 μg:2 μL in 300 μL of OptiMEM (Thermo Fisher Scientific, Waltham, MA, USA) medium per well. Following transfection, cells were treated with verteporfin (1.5 μmol/L) and incubated for 24 h, after which cell lysates were prepared. Luciferase readout was performed using Renilla luciferase assay system (Promega, Madison, WI, USA) and quantified with a SpectraMax L luminometer (Molecular Devices, San Jose, CA, USA). Relative luminescence values were normalized to β-galactosidase activity.

PLC/PRF/5 cells [4] = assay: Sorafenib resistance (viability, Annexin V/PI apoptosis) in dysadherin-OE PLC/PRF/5 cells; conditions: dysadherin-OE PLC/PRF/5 cells with sorafenib
Protocol: The rate of cell apoptosis was quantified using apoptosis assays performed with an Annexin V-Fluorescein isothiocyanate (FITC) Apoptosis Detection Kit I. (BD Biosciences, San Jose, CA, USA). Cells were washed twice with cold PBS to yield single-cell suspensions at a concentration of 1×10⁶ cells/mL. The suspension was transferred to a tube containing 5 µL of FITC, annexin V, and propidium iodide (PI). After gentle vortexing, the mixture was incubated at room temperature for 15 min in the dark. After incubation, 400 µL of 1 x binding buffer was added to each sample prior to flow cytometry analysis. FACS analysis was performed using a BD AccuriTM flow cytometer (BD Biosciences). FACS data were analyzed using FlowJo software (TreeStar, San Carlos, CA, USA) as described in our previous report.

PLC/PRF/5 cells [5] = assay: PD-L1 immunoblot in dysadherin-OE PLC/PRF/5 cells
Protocol: as §1

PLC/PRF/5 cells [6] = assay: Immunosuppressive gene expression in dysadherin-OE PLC/PRF/5 cells
Protocol: Total RNA was isolated using RNAiso reagent (Takara, Shiga, Japan), and purity was confirmed by 260/280 and 260/230 ratios. cDNA templates were synthesized from 0.5 μg of total RNA using the PrimeScriptTM 1st strand cDNA Synthesis Kit (Takara) with random primers. qPCR was performed using Power SYBR Green PCR Master Mix and Step-One Real-time PCR systems (Applied Biosystems, Foster City, CA, USA). The primers used are listed in Supplementary Table S2.

[7] = tested on: Jurkat T cells co-cultured with PLC/PRF/5 cells; assay: Jurkat T-cell co-culture assay (CD69 flow cytometry, IFN-γ ELISA); conditions: Jurkat cells co-cultured with dysadherin-OE PLC/PRF/5 cells, CD3/CD28 stimulation, 24 hours
Protocol: The rate of T-cell activation after co-culture with the HCC cells were evaluated by direct co-culture system. The assay was performed in 24-well plates. HCC cells (1x10^4) were seeded in the plates and cultured for 24 hours to allow attachment. The cells were transfected with or without YAP5SA and treated with or without verteporfin. Following 24 hours of treatment, the tumor cells were incubated for an additional 24 hours before introducing Jurkat cells (4x10^5). After 1hour of stabilization, T-cell activation was induced by adding soluble anti-CD3 (2 μg/mL, eBioscience, San Diego, CA, USA), soluble anti-CD28 (1 μg/mL, eBioscience), and anti-mouse Ig (5 μg/mL, Southern Biotech, Birmingham, AL, USA). After 24 hours of co-culture, the supernatant was collected for an IFN-γ ELISA assay, and Jurkat cells were harvested for FACS analysis to assess T-cell activation. The cells were stained with the PE-cy7 conjugated anti-CD69 antibody in FACS buffer for at least 1hour at 4 °C in the dark and analyzed on BD AccuriTM flow cytometer and data were processed using FlowJo software.
The concentration of IFN-γ in cell-free supernatants was measured using a Human IFN-γ ELISA Kit (R&D Systems, Minneapolis, MN, USA), following the manufacturer’s instructions.

Verteporfin
YAP activity (PLC/PRF/5 cells [1]): decreased
dysadherin OE-induced p-FAK, YAP activation and pluripotency markers (PLC/PRF/5 cells [1]; immunoblot): reversed these effects
CSC features (PLC/PRF/5 cells [2]): suppressed
clonogenicity (PLC/PRF/5 cells [3]): suppressed
OCT4 promoter activity increased by dysadherin OE (OCT4 promoter): suppressed
dysadherin OE-induced resistance to sorafenib (PLC/PRF/5 cells [4]): reversed
upregulation of PD-L1 expression by dysadherin OE (PLC/PRF/5 cells [5]): reversed
expression of immunosuppressive genes (PLC/PRF/5 cells [6]): markedly reduced
dysadherin OE-mediated suppression of CD69 upregulation and IFN-γ release [7]: reversed

CNC(=O)c1ccccc1Nc1cc(Nc2ccc(N3CCOCC3)cc2OC)ncc1C(F)(F)F [PND-1186]
dysadherin-induced increase in FAK phosphorylation (PLC/PRF/5 cells [1]): specifically suppressed
dysadherin-induced increase in YAP activation (PLC/PRF/5 cells [1]): specifically suppressed
dysadherin-induced increase in pluripotency gene expression (PLC/PRF/5 cells [1]): specifically suppressed
dysadherin OE-induced suppression of LATS1/2 phosphorylation (PLC/PRF/5 cells [1]; treatment with a FAK inhibitor): reversed

COc1ccc([C@H](CC(=O)O)N2CCN(CCCc3ccc4c(n3)NCCC4)C2=O)cn1 [MK-0429]
dysadherin-induced increase in FAK phosphorylation (PLC/PRF/5 cells [1]): specifically suppressed
dysadherin-induced increase in YAP activation (PLC/PRF/5 cells [1]): specifically suppressed
dysadherin-induced increase in pluripotency gene expression (PLC/PRF/5 cells [1]): specifically suppressed
